*1 amine or outer side, *2 acyl side, *3 side chain or, on linkers, in order; H or OH if unused. Where a SMILES comes first, the peptide text is derived from it. Side-chain parts run from the residue outwards. [ ]: non-standard residue; d: D form. The star is where a group is joined. Ala(4-thiazolyl) = N[C@@H](Cc1cscn1)C(=O)O; Phe(4-NH2) = Nc1ccc(C[C@H](N)C(=O)O)cc1; Cha = N[C@@H](CC1CCCCC1)C(=O)O; Tle = CC(C)(C)[C@H](N)C(=O)O; dDab = NCC[C@@H](N)C(=O)O; hSer = N[C@@H](CCO)C(=O)O; Orn = NCCC[C@H](N)C(=O)O; dDap = NC[C@@H](N)C(=O)O; Dab = NCC[C@H](N)C(=O)O; Dap = NC[C@H](N)C(=O)O; CO = O=C([*:1])[*:2]; NHiPr = CC(C)N*
System: human red blood cells (hRBC)
Experiment: Hemolysis of human red blood cells
Assay type: cell-based
Details: red cells of human, 1 h, 100
Description: Lyophilized peptides were weighed on a Microbalance (Mettler MT5) and dissolved in sterile water to a final concentration of 1 mg/ml. Stock solutions were kept at +4° C., light protected.
The peptides were tested for their hemolytic activity against human red blood cells (hRBC). Fresh hRBC were washed three times with phosphate buffered saline (PBS) and centrifuged for 10 min at 2000×g. Compounds (100 μg/ml) were incubated with 20% hRBC (v/v) for 1 h at 37° C. and shaking at 300 rpm. The final erythrocyte concentration was approximately 0.9×10^9 cells/ml. A value of 0% and 100% cell lyses, respectively, was determined by incubation of hRBC in the presence of PBS containing 0.001% acetic acid and 2.5% Triton X-100 in H2O, respectively. The samples were centrifuged, the supernatants were 8-fold diluted in PBS buffer and the optical densities (OD) were measured at 540 nm. The 100% lyses value (OD540H2O) gave an OD540 of approximately 0.5-1.0.
Percent hemolysis was calculated as follows: (OD540peptide/OD540H2O)×100%.

Compared with `CC(C)C[C@@H]1NC(=O)[C@@H]2CCCN2C(=O)[C@H]2CCCN2C(=O)[C@H]([C@@H](C)O)NC(=O)[C@H](CO)NC(=O)[C@H](C(C)(C)C)NC(=O)[C@H](CCN)NC(=O)[C@H](Cc2c[nH]c3ccccc23)NC(=O)[C@H](CCN)NC(=O)[C@@H](CCN)NC(=O)[C@H](CCN)NC(=O)[C@H](CCN)NC(=O)[C@H](Cc2ccc(O)cc2)NC(=O)[C@H](CN)NC1=O` [compound 149] (cyclo(L[Dap]Y[Dab][Dab][dDab][Dab]W[Dab][Tle]ST[dP]P)), `CC(C)C[C@@H]1NC(=O)[C@@H]2CCCN2C(=O)[C@H]2CCCN2C(=O)[C@H](CO)NC(=O)[C@H](C)NC(=O)[C@H](C(C)(C)C)NC(=O)[C@H](CCN)NC(=O)[C@H](Cc2c[nH]c3ccccc23)NC(=O)[C@H](CCN)NC(=O)[C@H](CCN)NC(=O)[C@H](CCCCN)NC(=O)[C@H](CCN)NC(=O)[C@H](Cc2ccc(O)cc2)NC(=O)[C@H](CO)NC1=O` [compound 26] (cyclo(LSY[Dab]K[Dab][Dab]W[Dab][Tle]AS[dP]P)) is lower in “Hemolysis at 100 μg/ml” value: 4% for the first, 1% for the second.

`CC(C)C[C@@H]1NC(=O)[C@@H]2CCCN2C(=O)[C@H]2CCCN2C(=O)[C@H](CO)NC(=O)[C@H](CC(N)=O)NC(=O)[C@H](C(C)(C)C)NC(=O)[C@H](CCN)NC(=O)[C@H](Cc2c[nH]c3ccccc23)NC(=O)[C@H](CCN)NC(=O)[C@@H](CCN)NC(=O)[C@H](CCCN)NC(=O)[C@H](CCN)NC(=O)[C@H](Cc2ccc(O)cc2)NC(=O)[C@H](CC(=O)O)NC1=O` [compound 123] (cyclo(LDY[Dab][Orn][dDab][Dab]W[Dab][Tle]NS[dP]P)) and `CC(C)C[C@@H]1NC(=O)[C@@H]2CCCN2C(=O)[C@H]2CCCN2C(=O)[C@H](CO)NC(=O)[C@H](Cc2ccc(O)cc2)NC(=O)[C@H](C(C)(C)C)NC(=O)[C@H](CCN)NC(=O)[C@H](Cc2c[nH]c3ccccc23)NC(=O)[C@H](CCN)NC(=O)[C@@H](CCN)NC(=O)[C@H](CCCN)NC(=O)[C@H](CCN)NC(=O)[C@H](Cc2ccc(O)cc2)NC(=O)[C@H](CC(=O)O)NC1=O` [compound 112] (cyclo(LDY[Dab][Orn][dDab][Dab]W[Dab][Tle]YS[dP]P)) are the same in “Hemolysis at 100 μg/ml” value: 0% for the first, 0% for the second.

Compared with `C[C@@H]1NC(=O)[C@H](C(C)(C)C)NC(=O)[C@H](CCN)NC(=O)[C@H](Cc2c[nH]c3ccccc23)NC(=O)[C@H](CCN)NC(=O)[C@@H](CCN)NC(=O)[C@H](CCCN)NC(=O)[C@H](CCN)NC(=O)[C@H](CC2CCCCC2)NC(=O)[C@H](CO)NC(=O)[C@H](Cc2cscn2)NC(=O)[C@@H]2CCCN2C(=O)[C@H]2CCCN2C(=O)[C@H](CO)NC1=O` [compound 22] (cyclo([Ala(4-thiazolyl)]S[Cha][Dab][Orn][dDab][Dab]W[Dab][Tle]AS[dP]P)), `CC[C@H](C)[C@@H]1NC(=O)[C@@H]2CCCN2C(=O)[C@H]2CCCN2C(=O)[C@H](CO)NC(=O)[C@H](CO)NC(=O)[C@H](C(C)(C)C)NC(=O)[C@H](CCN)NC(=O)[C@H](Cc2c[nH]c3ccccc23)NC(=O)[C@H](CCN)NC(=O)[C@@H](CCN)NC(=O)[C@H](CCCN)NC(=O)[C@H](CCN)NC(=O)[C@H](CC2CCCCC2)NC(=O)[C@H](C)NC1=O` [compound 151] (cyclo(IA[Cha][Dab][Orn][dDab][Dab]W[Dab][Tle]SS[dP]P)) is higher in “Hemolysis at 100 μg/ml” value: 0% for the first, 7% for the second.

Compared with `CC[C@H](C)[C@@H]1NC(=O)[C@@H]2CCCN2C(=O)[C@H]2CCCN2C(=O)[C@H](CO)NC(=O)[C@H](C)NC(=O)[C@H](C(C)(C)C)NC(=O)[C@H](CCN)NC(=O)[C@H](Cc2c[nH]c3ccccc23)NC(=O)[C@H](CCN)NC(=O)[C@@H](CCN)NC(=O)[C@H](CCCN)NC(=O)[C@H](CCN)NC(=O)[C@H](Cc2ccc(O)cc2)NC(=O)[C@H](CO)NC1=O` [compound 44] (cyclo(ISY[Dab][Orn][dDab][Dab]W[Dab][Tle]AS[dP]P)), `CC[C@H](C)[C@@H]1NC(=O)[C@@H]2CCCN2C(=O)[C@H]2CCCN2C(=O)[C@H](CO)NC(=O)[C@H](C)NC(=O)[C@H](C(C)(C)C)NC(=O)[C@H](CCN)NC(=O)[C@H](Cc2c[nH]c3ccccc23)NC(=O)[C@H](CCN)NC(=O)[C@@H](CCN)NC(=O)[C@H](CCCN)NC(=O)[C@H](CCN)NC(=O)[C@H](Cc2ccc(N)cc2)NC(=O)[C@H](CO)NC1=O` [compound 83] (cyclo(IS[Phe(4-NH2)][Dab][Orn][dDab][Dab]W[Dab][Tle]AS[dP]P)) is lower in “Hemolysis at 100 μg/ml” value: 2% for the first, 0.5% for the second.

Going from `C[C@@H]1NC(=O)[C@H](C(C)(C)C)NC(=O)[C@H](CCN)NC(=O)[C@H](Cc2c[nH]c3ccccc23)NC(=O)[C@H](CCN)NC(=O)[C@@H](CN)NC(=O)[C@H](CCCN)NC(=O)[C@H](CCN)NC(=O)[C@H](CC2CCCCC2)NC(=O)[C@H](CO)NC(=O)[C@H](Cc2c[nH]c3ccccc23)NC(=O)[C@@H]2CCCN2C(=O)[C@H]2CCCN2C(=O)[C@H](CO)NC1=O` [compound 19] (cyclo(WS[Cha][Dab][Orn][dDap][Dab]W[Dab][Tle]AS[dP]P)) to `CC(C)C[C@@H]1NC(=O)[C@@H]2CCCN2C(=O)[C@H]2CCCN2C(=O)[C@H](CO)NC(=O)[C@H](C)NC(=O)[C@H](C(C)(C)C)NC(=O)[C@H](CCN)NC(=O)[C@H](Cc2c[nH]c3ccccc23)NC(=O)[C@H](CCN)NC(=O)[C@@H](CCN)NC(=O)[C@H](CCCN)NC(=O)[C@H](CCN)NC(=O)[C@H](Cc2ccccc2)NC(=O)[C@H](CO)NC1=O` [compound 28] (cyclo(LSF[Dab][Orn][dDab][Dab]W[Dab][Tle]AS[dP]P)), the “Hemolysis at 100 μg/ml” value falls from 3% to 2%.

Compared with `CC(C)C[C@@H]1NC(=O)[C@@H]2CCCN2C(=O)[C@H]2CCCN2C(=O)[C@H](CN)NC(=O)[C@H](C)NC(=O)[C@H](C(C)(C)C)NC(=O)[C@H](CCO)NC(=O)[C@H](Cc2c[nH]c3ccccc23)NC(=O)[C@H](CCN)NC(=O)[C@@H](CCN)NC(=O)[C@H](CCCN)NC(=O)[C@H](CCN)NC(=O)[C@H](Cc2ccc(O)cc2)NC(=O)[C@H](CO)NC1=O` [compound 42] (cyclo(LSY[Dab][Orn][dDab][Dab]W[hSer][Tle]A[Dap][dP]P)), `CC[C@H](C)[C@@H]1NC(=O)[C@@H]2CCCN2C(=O)[C@H]2CCCN2C(=O)[C@H](CO)NC(=O)[C@H](C)NC(=O)[C@H](C(C)(C)C)NC(=O)[C@H](CCN)NC(=O)[C@H](Cc2c[nH]c3ccccc23)NC(=O)[C@H](CCN)NC(=O)[C@@H](CCN)NC(=O)[C@H](CCCN)NC(=O)[C@H](CCN)NC(=O)[C@H](Cc2ccc(O)cc2)NC(=O)[C@H](CC(N)=O)NC1=O` [compound 85] (cyclo(INY[Dab][Orn][dDab][Dab]W[Dab][Tle]AS[dP]P)) is lower in “Hemolysis at 100 μg/ml” value: 1% for the first, 0% for the second.

In the case of `CC(C)C[C@@H]1NC(=O)[C@@H]2CCCN2C(=O)[C@H]2CCCN2C(=O)[C@H](CO)NC(=O)[C@H](C)NC(=O)[C@H](C(C)(C)C)NC(=O)[C@H](CCN)NC(=O)[C@H](Cc2c[nH]c3ccccc23)NC(=O)[C@H](CCN)NC(=O)[C@@H](CCN)NC(=O)[C@H](CCCN)NC(=O)[C@H](CCN)NC(=O)[C@H](CC2CCCCC2)NC(=O)[C@H](CNC(=O)NC(C)C)NC1=O` [compound 40] (cyclo(L[Dap]([CO-NHiPr])[Cha][Dab][Orn][dDab][Dab]W[Dab][Tle]AS[dP]P)), the “Hemolysis at 100 μg/ml” value is reported as 1%.
